Drawing on PubChem BioAssay (NCI), this text covers GI50 and TGI for seven compounds.

Molecules are shown by their SMILES. Values joined by “and” are separate entries in the source; they are usually repeats but may differ in a detail not shown here. Equal values may be shown once.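 Where inhibition never reached the appropriate level, the endpoint shown equals the highest concentration tested. Otherwise, values were interpolated linearly from a five-concentration, 48-hour dose response in 96-well plates. Here, GI50 denotes the concentration required for 50% inhibition of growth. The concentration for full growth arrest is given as TGI.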 A value given as a limit tells only on which side of the number the result lay.

Some test systems named below: HCT-15 colon; IGROV1 ovarian; KM12 colon; LOX IMVI melanoma; MDA-MB-231 breast; MDA-MB-435; NCI-H226 lung; OVCAR-8 ovarian; SW-620 colon; UO-31 renal.
Common to all, as to test: NCI anticancer screen, dose series, 48 h

In the case of `Oc1cc(O)c2c(=S)cc(-c3ccc(Cl)cc3)oc2c1`, the GI50 in the experiment on HCT-15 colon was 0.397 µM; in the experiment with IGROV1 ovarian it was 0.533 µM; with KM12 colon, 2.08 µM; in the experiment on LOX IMVI melanoma, 2.92 µM; in the experiment with MDA-MB-231 breast, 2 µM; in the experiment on MDA-MB-435, 3.41 µM. In addition, the GI50 with NCI-H226 lung was 4.97 µM; in the experiment on OVCAR-8 ovarian, 3.3 µM; in the experiment with SW-620 colon it was 3.55 µM; with UO-31 renal, 1.21 µM. The TGI with HCT-15 colon was 11.9 µM; in the experiment on IGROV1 ovarian, 16.5 µM; with KM12 colon, 11.5 µM; in the experiment with LOX IMVI melanoma it was 11.6 µM; with MDA-MB-231 breast, 6.54 µM; in the experiment on MDA-MB-435, 14 µM. Besides, the TGI in the experiment on NCI-H226 lung came to 32.5 µM; with OVCAR-8 ovarian it was 14.9 µM; with SW-620 colon it was 16.9 µM; in the experiment with UO-31 renal it was 8.58 µM.
Consider `C[C@H]1CC[C@@H]2[C@@H](C)[C@H]3[C@H](C[C@H]4[C@@H]5CC=C6C[C@@H](O)CC[C@]6(C)[C@H]5C[C@H](O)[C@]34C)N2C1`, for which the TGI in the experiment with HCT-15 colon, with IGROV1 ovarian, in the experiment with KM12 colon, in the experiment with LOX IMVI melanoma, with MDA-MB-231 breast and in the experiment with MDA-MB-435 was over 100 µM each time. In addition, the TGI with NCI-H226 lung, in the experiment on OVCAR-8 ovarian, with SW-620 colon and with UO-31 renal was over 100 µM each time.
With `CCc1c(Cl)nc(Cl)nc1Cl`, the TGI was determined as 0.601 µM in the experiment with HCT-15 colon; 4.44 µM in the experiment on IGROV1 ovarian; 4.16 µM in the experiment with KM12 colon; 1.54 µM in the experiment on LOX IMVI melanoma; 2.81 µM in the experiment with MDA-MB-231 breast; 12.1 µM in the experiment with MDA-MB-435. Besides, the TGI in the experiment on NCI-H226 lung was determined as 0.283 µM; in the experiment on OVCAR-8 ovarian, 44.4 µM; with SW-620 colon, 1.39 µM; with UO-31 renal it was 4.85 µM.
As for `COc1cccc(C2C3=C(COC3=O)N(CCO)c3cc4c(cc32)OCCO4)c1` (stereo unspecified), the GI50 is 0.21 µM with HCT-15 colon; 0.0959 µM with IGROV1 ovarian; 0.0798 µM with KM12 colon; 0.288 µM with LOX IMVI melanoma; 0.257 µM in the experiment on MDA-MB-231 breast; 0.0179 µM with MDA-MB-435. In addition, the GI50 with NCI-H226 lung was 7.26 µM; with OVCAR-8 ovarian, 0.22 µM; in the experiment on SW-620 colon, 0.104 µM; in the experiment with UO-31 renal, 0.268 µM. Further, the TGI is over 50 µM with HCT-15 colon; 0.906 µM in the experiment on IGROV1 ovarian; 1.85 µM in the experiment with KM12 colon; over 50 µM in the experiment with LOX IMVI melanoma; 34.5 µM with MDA-MB-231 breast; 0.0767 µM in the experiment with MDA-MB-435. The TGI is over 50 µM with NCI-H226 lung, over 50 µM in the experiment with OVCAR-8 ovarian, over 50 µM in the experiment with SW-620 colon and over 15.6 µM in the experiment with UO-31 renal.
On to `CC1OC(OC2CC(O)C3(CO)C4C(O)CC5(C)C(C6=CC(=O)OC6)CCC5(O)C4CCC3(O)C2)C(O)C(O)C1O` (stereo unspecified), for which the GI50 in the experiment with HCT-15 colon was under 0.0133 µM; with IGROV1 ovarian it was under 0.0161 µM; in the experiment with KM12 colon, 0.0249 µM; in the experiment with LOX IMVI melanoma it was under 0.0196 µM; with MDA-MB-231 breast it was 0.129 µM; with MDA-MB-435 it was 0.0222 µM. The GI50 in the experiment with NCI-H226 lung was 0.0167 µM; in the experiment with OVCAR-8 ovarian, under 0.0199 µM; in the experiment with SW-620 colon it was 0.02 µM; in the experiment on UO-31 renal it was under 0.0124 µM. Moreover, the TGI in the experiment on HCT-15 colon stood at 0.024 µM; in the experiment on IGROV1 ovarian, 0.384 µM; with KM12 colon, 0.217 µM; in the experiment with LOX IMVI melanoma, 0.0457 µM; with MDA-MB-231 breast, 0.641 µM; in the experiment with MDA-MB-435, 0.0785 µM. Further, the TGI with NCI-H226 lung amounted to 0.0646 µM; in the experiment with OVCAR-8 ovarian, 0.046 µM; in the experiment with SW-620 colon, 0.702 µM; with UO-31 renal, 0.0198 µM.
As to `COc1cc([C@@H]2c3cc4c(cc3[C@H](O)[C@H]3COC(=O)[C@H]23)OCO4)cc(OC)c1OC`, the GI50 in the experiment on HCT-15 colon is under 0.005 µM; with IGROV1 ovarian, under 0.005 µM; with KM12 colon, under 0.01 µM; in the experiment on LOX IMVI melanoma, under 0.01 µM; in the experiment on MDA-MB-231 breast, under 0.01 µM; in the experiment with MDA-MB-435, under 0.01 µM. Besides, the GI50 in the experiment with NCI-H226 lung was under 0.01 µM; in the experiment with OVCAR-8 ovarian, under 0.01 µM; in the experiment with SW-620 colon it was under 0.01 µM; in the experiment on UO-31 renal, under 0.005 µM. Further, the TGI is > 100 µM and 50 µM in the experiment on HCT-15 colon; > 100 µM and 50 µM in the experiment on LOX IMVI melanoma; under 0.005 µM in the experiment on MDA-MB-435; > 100 µM and 50 µM and > 7.6 µM with OVCAR-8 ovarian; > 100 µM and 50 µM in the experiment with SW-620 colon; > 100 µM and 50 µM and 42.7 µM with UO-31 renal.
Take `N#Cc1cccc(NC(=O)c2oc3ccccc3c2-c2cnn(-c3ccccc3)c2)c1`: the GI50 in the experiment with HCT-15 colon was over 500 µM; with IGROV1 ovarian, 120 µM; in the experiment with KM12 colon, over 500 µM; in the experiment on LOX IMVI melanoma it was 308 µM; in the experiment on MDA-MB-231 breast, 90 µM; with MDA-MB-435, over 500 µM. For the same compound, the GI50 is over 500 µM in the experiment on NCI-H226 lung, over 500 µM with OVCAR-8 ovarian, over 500 µM in the experiment with SW-620 colon and 41.2 µM with UO-31 renal. Moreover, the TGI with HCT-15 colon, with IGROV1 ovarian, with KM12 colon, in the experiment with LOX IMVI melanoma, in the experiment with MDA-MB-231 breast and in the experiment with MDA-MB-435 was over 500 µM in each case. Besides, the TGI in the experiment with NCI-H226 lung, in the experiment with OVCAR-8 ovarian, in the experiment on SW-620 colon and with UO-31 renal was over 500 µM throughout.
